Where two headings read alike, the source gives them in different places.
Columns and labels:
[1] = tested on: Chenopodium album (CHEAL), common lambsquarters; test: Postemergence herbicide evaluation, growth of Chenopodium album (CHEAL); assay type: in vivo; conditions: Chenopodium album, post-emergence, percent reduction in plant size relative to untreated control, read-out: Ave. CHEAL; for pest or weed control at 280 g/ha: 280 g ae/ha; for pest or weed control at 560 g/ha: 560 g ae/ha
[2] = tested on: Amaranthus rudis (AMATA), tall water hemp; test: Postemergence herbicide evaluation, growth of Amaranthus rudis (AMATA); assay type: in vivo; conditions: Amaranthus tuberculatus, post-emergence, percent reduction in plant size relative to untreated control, read-out: Ave. AMATA; for pest or weed control at 280 g/ha: 280 g ae/ha; for pest or weed control at 560 g/ha: 560 g ae/ha
[3] = tested on: Ambrosia artemisiifolia (AMBEL), common ragweed; test: Postemergence herbicide evaluation, growth of Ambrosia artemisiifolia (AMBEL); assay type: in vivo; conditions: Ambrosia artemisiifolia, post-emergence, percent reduction in plant size relative to untreated control, read-out: AVE. AMBEL; for pest or weed control at 280 g/ha: 280 g ae/ha; for pest or weed control at 560 g/ha: 560 g ae/ha
[4] = tested on: Abutilon theophrasti (ABUTH), velvetleaf; test: Postemergence herbicide evaluation, growth of Abutilon theophrasti (ABUTH); assay type: in vivo; conditions: Abutilon theophrasti, post-emergence, percent reduction in plant size relative to untreated control, read-out: AVE. ABUTH; for pest or weed control at 280 g/ha: 280 g ae/ha; for pest or weed control at 560 g/ha: 560 g ae/ha
[5] = tested on: weeds (ABUTH, AMATA, AMBEL, CHEAL, ERICA); test: Postemergence herbicide evaluation, overall average % weed control across ABUTH, AMATA, AMBEL, CHEAL, ERICA; assay type: in vivo; conditions: post-emergence, average over the five weeds, read-out: Overall Ave % Weed Control; for pest or weed control at 280 g/ha: 280 g ae/ha; for pest or weed control at 560 g/ha: 560 g ae/ha
[6] = Volatility of compounds measured by thermogravimetric analysis (TGA); assay type: physicochemical
[7] = tested on: glyphosate resistant Conyza canadensis (L.) (ERICA), horseweed; test: Postemergence herbicide evaluation, growth of Conyza canadensis (ERICA); assay type: in vivo; conditions: Erigeron canadensis, post-emergence, percent reduction in plant size relative to untreated control, read-out: Ave. ERICA; for pest or weed control at 280 g/ha: 280 g ae/ha; for pest or weed control at 560 g/ha: 560 g ae/ha

Cc1cc(OC(=O)COc2ccc(Cl)cc2Cl)n(C)n1 [Compound E6, 1,3-Dimethyl-1H-pyrazol-5-yl 2-(2,4-dichlorophenoxy)acetate]
pest or weed control at 280 g/ha ([1]; 168 h, 7 DAA): 63% | pest or weed control at 560 g/ha ([1]; 168 h, 7 DAA): 70% | pest or weed control at 280 g/ha ([1]; 336 h, 14 DAA): 65% | pest or weed control at 560 g/ha ([1]; 336 h, 14 DAA): 85% | pest or weed control at 280 g/ha ([1]; 504 h, 21 DAA): 58% | pest or weed control at 560 g/ha ([1]; 504 h, 21 DAA): 90% | pest or weed control at 280 g/ha ([2]; 168 h, 7 DAA): 70% | pest or weed control at 560 g/ha ([2]; 168 h, 7 DAA): 75% | pest or weed control at 280 g/ha ([2]; 336 h, 14 DAA): 82% | pest or weed control at 560 g/ha ([2]; 336 h, 14 DAA): 80% | pest or weed control at 280 g/ha ([2]; 504 h, 21 DAA): 70% | pest or weed control at 560 g/ha ([2]; 504 h, 21 DAA): 77% | pest or weed control at 280 g/ha ([3]; 168 h, 7 DAA): 65% | pest or weed control at 560 g/ha ([3]; 168 h, 7 DAA): 73% | pest or weed control at 280 g/ha ([3]; 336 h, 14 DAA): 80% | pest or weed control at 560 g/ha ([3]; 336 h, 14 DAA): 88% | pest or weed control at 280 g/ha ([3]; 504 h, 21 DAA): 93% | pest or weed control at 560 g/ha ([3]; 504 h, 21 DAA): 96% | pest or weed control at 280 g/ha ([4]; 168 h, 7 DAA): 83% | pest or weed control at 560 g/ha ([4]; 168 h, 7 DAA): 83% | pest or weed control at 280 g/ha ([4]; 336 h, 14 DAA): 88% | pest or weed control at 560 g/ha ([4]; 336 h, 14 DAA): 93% | pest or weed control at 280 g/ha ([4]; 504 h, 21 DAA): 96% | pest or weed control at 560 g/ha ([4]; 504 h, 21 DAA): 94% | pest or weed control at 280 g/ha ([5]; 168 h, 7 DAA): 69% | pest or weed control at 560 g/ha ([5]; 168 h, 7 DAA): 73% | pest or weed control at 280 g/ha ([5]; 336 h, 14 DAA): 79% | pest or weed control at 560 g/ha ([5]; 336 h, 14 DAA): 86% | pest or weed control at 280 g/ha ([5]; 504 h, 21 DAA): 82% | pest or weed control at 560 g/ha ([5]; 504 h, 21 DAA): 90% | TGA Data (rate of weight loss, volatility) [6]: 1 µg/min | pest or weed control at 280 g/ha ([7]; 168 h, 7 DAA): 63% | pest or weed control at 560 g/ha ([7]; 168 h, 7 DAA): 65% | pest or weed control at 280 g/ha ([7]; 336 h, 14 DAA): 83% | pest or weed control at 560 g/ha ([7]; 336 h, 14 DAA): 83% | pest or weed control at 280 g/ha ([7]; 504 h, 21 DAA): 96% | pest or weed control at 560 g/ha ([7]; 504 h, 21 DAA): 95%

Source: patent US20260042731A1, “(2,4-DICHLOROPHENOXY)ACETIC ACID ANALOGS” (CORTEVA AGRISCIENCE LLC, priority 2022, published 2026)
